In the Kinase Knowledgebase extract (Sharma et al. 2016):

Each compound was assayed against CDK2 (human) (UniProt P24941) (assay: Enzyme Assay).

Compound	Ki [µM]
O=c1[nH][nH]c2cc(CCCCNc3nccnn3)ccc12	< 1
Cc1cnc(NC2CCCC(c3ccc4[nH][nH]c(=O)c4c3)C2)s1 (centres undefined)	< 1
O=c1[nH][nH]c2cc(Nc3nc(Nc4cc(C5CC5)[nH]n4)cc(-c4ccccc4Cl)n3)ccc12	< 1
Cc1cc(Nc2nc(Nc3ccc4c(=O)[nH][nH]c4c3)nc3c2CCCC3)n[nH]1	< 1
Cc1cc(Nc2cc(-c3cc4c(=O)[nH][nH]c4cc3C(F)(F)F)nc3cnccc23)n[nH]1	< 1
O=c1[nH][nH]c2cc(SCC3CCCC3Nc3cc(C4CC4)[nH]n3)ccc12 (centres undefined)	< 1
Cc1cc(Nc2nc(Nc3ccc4c(=O)[nH][nH]c4c3)nc(C)c2C)n[nH]1	< 1
Cc1nc(Sc2ccc3c(=O)[nH][nH]c3c2)nc(Nc2cc(C3CC3)[nH]n2)c1C	< 1
O=c1[nH][nH]c2cc(Nc3nc(Nc4n[nH]c5ncccc45)c4ccccc4n3)ccc12	< 1
COCCNC(=O)c1cc(Nc2cc(C)[nH]n2)nc(Sc2ccc3c(=O)[nH][nH]c3c2)n1	< 1
Cc1cc(Nc2nc(Oc3ccc4c(=O)[nH][nH]c4c3)cc3ccccc23)n[nH]1	< 1
CCc1cc(Nc2cc(C)[nH]n2)nc(COc2ccc3[nH][nH]c(=O)c3c2)n1	< 1
O=c1[nH][nH]c2cc(CC(CCNc3nccnn3)Cc3ccccc3)ccc12 (centres undefined)	< 1
COCc1cc(Nc2cc(C)[nH]n2)nc(COc2ccc3[nH][nH]c(=O)c3c2)n1	< 1
O=c1[nH][nH]c2cc(Cl)c(-c3cc(N4CCCCC4)nc(Nc4n[nH]c5ccccc45)n3)cc12	< 1
Cc1cc(Nc2nc(Sc3ccc4c(=O)[nH][nH]c4c3)nc3cc(OCCCN4CCOCC4)ccc23)n[nH]1	< 1
O=c1[nH][nH]c2cc(CC(CCNc3cc(C4CC4)[nH]n3)Cc3ccccc3)ccc12 (centres undefined)	< 1
O=c1[nH][nH]c2cc(OC3CCCC(Nc4cc(C5CC5)[nH]n4)C3)ccc12 (centres undefined)	< 1
Cc1nc(Oc2ccc3c(=O)[nH][nH]c3c2)nc(Nc2cc(C3CC3)[nH]n2)c1C	< 1
O=c1[nH][nH]c2cc(Cl)c(-c3nc(Nc4n[nH]c5ccccc45)nc(-c4cccnc4)n3)cc12	< 1
Cn1cnc(NCCC(Cc2ccccc2)Nc2ccc3c(=O)[nH][nH]c3c2)c1 (centres undefined)	< 1
Cn1cnc(NC2COCC(Nc3ccc4c(=O)[nH][nH]c4c3)C2)c1 (centres undefined)	< 1
O=c1[nH][nH]c2ccc(-c3nc4c(c(Nc5n[nH]c6c(F)cccc56)n3)CCCCC4)c(Cl)c12	< 1

Compound	Ki [µM]
N#Cc1cc(Nc2n[nH]c3ccccc23)nc(-c2ccc3[nH][nH]c(=O)c3c2C(F)(F)F)n1	< 1
Cc1cc(Nc2nc(Sc3ccc4c(=O)[nH][nH]c4c3)nc3c(O)cccc23)n[nH]1	< 1
O=c1[nH][nH]c2ccc(-c3cc(Nc4n[nH]c5cccnc45)c4ccccc4n3)cc12	< 1
O=c1[nH][nH]c2cc(C(F)(F)F)c(-c3nc4c(c(Nc5n[nH]c6ccc(F)cc56)n3)OCCC4)cc12	< 1
O=C(CCNc1nccnn1)Nc1ccc2c(=O)[nH][nH]c2c1	< 1
O=C(CC(=O)Nc1cc(C2CC2)[nH]n1)Nc1ccc2c(=O)[nH][nH]c2c1	< 1
Cc1cc(Nc2cc(-c3ccccc3)nc(Nc3ccc4c(=O)[nH][nH]c4c3)n2)n[nH]1	< 1
O=c1[nH][nH]c2cc(NC3CCC(Nc4nccnn4)C3)ccc12 (centres undefined)	< 1
O=c1[nH][nH]c2ccc(-c3nc(Nc4cc(-c5ccccc5)[nH]n4)c4ccccc4n3)c(C(F)(F)F)c12	< 1
O=c1[nH][nH]c2cc(Nc3cccc(Nc4cc(C5CC5)[nH]n4)n3)ccc12	< 1
O=c1[nH][nH]c2cc(C(F)(F)F)c(-c3nc(Nc4n[nH]c5ccccc45)nc(N4CCSCC4)n3)cc12	< 1
Cn1cnc(NC2CCCC(c3ccc4[nH][nH]c(=O)c4c3)C2)c1 (centres undefined)	< 1
O=c1[nH][nH]c2cc(OCCONc3cc(C4CC4)[nH]n3)ccc12	< 1
O=c1[nH][nH]c2cc(SCCCNc3ccccn3)ccc12	< 1
Cn1cnc(NC(CCOc2ccc3c(=O)[nH][nH]c3c2)c2ccccc2)c1 (centres undefined)	< 1
Cn1cnc(NC2CCC(COCc3ccc4c(=O)[nH][nH]c4c3)C2)c1 (centres undefined)	< 1
COCCNc1cc(Nc2cc(C)[nH]n2)nc(SCc2ccc3[nH][nH]c(=O)c3c2)n1	< 1
CC(C)(C)c1cc(Nc2nc(-c3ccc4[nH][nH]c(=O)c4c3C(F)(F)F)nc3ccccc23)n[nH]1	< 1
Cc1cnc(NOCCOc2ccc3c(=O)[nH][nH]c3c2)s1	< 1
Nc1cncc(-c2nc(Nc3n[nH]c4ccccc34)nc(-c3cc4c(=O)[nH][nH]c4cc3C(F)(F)F)n2)c1	< 1
O=c1[nH][nH]c2ccc(C3CCCC(Nc4cc(C5CC5)[nH]n4)C3)cc12 (centres undefined)	< 1
Cc1cccc(-c2cc(Nc3cc(C)[nH]n3)nc(Oc3ccc4c(=O)[nH][nH]c4c3)n2)c1	< 1
O=c1[nH][nH]c2cc(C(F)(F)F)c(-c3cc(Nc4n[nH]c(C5CC5)n4)c4ccccc4n3)cc12	< 1

Compound	Ki [µM]
O=c1[nH][nH]c2cc(Nc3nc(Nc4cc(C5CC5)[nH]n4)c4cc(Cl)ccc4n3)ccc12	< 1
CN(C)CCCOc1cc(Nc2cc(C3CC3)[nH]n2)nc(Sc2ccc3c(=O)[nH][nH]c3c2)n1	< 1
O=c1[nH][nH]c2cc(C(F)(F)F)c(-c3cc(N4CCCCC4)cc(Nc4n[nH]c5ccccc45)n3)cc12	< 1
O=c1[nH][nH]c2cc(NC3CCC(Nc4cc(C5CC5)[nH]n4)C3)ccc12 (centres undefined)	< 1
Cc1cnc(NOCCNc2ccc3c(=O)[nH][nH]c3c2)s1	< 1
Cc1cnc(NC2COCC(Sc3ccc4c(=O)[nH][nH]c4c3)C2)s1 (centres undefined)	< 1
Cc1cc(Nc2nc(Cc3ccc4c(=O)[nH][nH]c4c3)nc3c2CCN(Cc2ccccc2)C3)n[nH]1	< 1
Cc1cc(Nc2nc(-c3ccc4[nH][nH]c(=O)c4c3)nc3cnccc23)n[nH]1	< 1
O=c1[nH][nH]c2ccc(-c3nc(Nc4cc(-c5cccs5)[nH]n4)c4ccccc4n3)c(C(F)(F)F)c12	< 1
Cn1cnc(NCCONc2ccc3c(=O)[nH][nH]c3c2)c1	< 1
Cc1cnc(NC(=O)CC(=O)Oc2ccc3c(=O)[nH][nH]c3c2)s1	< 1
O=c1[nH][nH]c2cc(NCCONc3cc(C4CC4)[nH]n3)ccc12	< 1
Cc1cc(Nc2nc(COc3ccc4c(=O)[nH][nH]c4c3)nc3c2CNCC3)n[nH]1	< 1
O=C(CCNc1ccc2c(=O)[nH][nH]c2c1)Nc1cc(C2CC2)[nH]n1	< 1
O=c1[nH][nH]c2cc(SC(CCNc3ccccn3)Cc3ccccc3)ccc12 (centres undefined)	< 1
CN1CCN(c2cc(Nc3cc(C4CC4)[nH]n3)nc(Oc3ccc4c(=O)[nH][nH]c4c3)n2)CC1	< 1
Cn1cnc(NC2COCC(Sc3ccc4c(=O)[nH][nH]c4c3)C2)c1 (centres undefined)	< 1
O=C(CCOc1ccc2c(=O)[nH][nH]c2c1)Nc1cc(C2CC2)[nH]n1	< 1
Cn1cnc(NC2CCCC2CSc2ccc3c(=O)[nH][nH]c3c2)c1 (centres undefined)	< 1
COc1nc(Nc2ccc3c(=O)[nH][nH]c3c2)nc(Nc2cc(C3CC3)[nH]n2)n1	< 1
O=c1[nH][nH]c2cc(Nc3nc(Nc4cc(C5CC5)[nH]n4)c4cc(N5CCOCC5)ccc4n3)ccc12	< 1
Cc1cnc(NCCCSc2ccc3c(=O)[nH][nH]c3c2)s1	< 1
Cc1cc(Nc2cc(C(=O)N3CCN(C)CC3)nc(Sc3ccc4c(=O)[nH][nH]c4c3)n2)n[nH]1	< 1
